The target of test [1] is T1, human bradykinin 1 receptor (B1R) (Homo sapiens, UniProt P46663).
T1 construct: expressed in transfected cells; host or cells: CHO K1 cells
T1 sequence (P46663 1-353): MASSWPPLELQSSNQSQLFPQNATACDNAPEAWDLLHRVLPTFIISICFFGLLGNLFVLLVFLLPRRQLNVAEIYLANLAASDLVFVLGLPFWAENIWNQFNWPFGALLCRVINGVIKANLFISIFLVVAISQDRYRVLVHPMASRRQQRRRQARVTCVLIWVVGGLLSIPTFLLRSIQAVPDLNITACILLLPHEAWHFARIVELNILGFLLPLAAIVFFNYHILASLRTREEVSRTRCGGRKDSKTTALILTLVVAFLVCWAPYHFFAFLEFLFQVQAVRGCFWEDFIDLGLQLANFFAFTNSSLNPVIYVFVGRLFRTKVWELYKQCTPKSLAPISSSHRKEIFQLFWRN
Kind of test: Functional investigation on the human bradykinin 1 receptor (B1R), Ca2+ FLIPR assay in CHO K1 hB1R cells. The format is cell-based. The source says:
(§1) Functional Investigation on the Human Bradykinin 1 Receptor (B1R)
(§2) The agonistic or antagonistic action of substances can be determined on the bradykinin 1 receptor (B1R) of the human species and rats with the following assay. In accordance with this assay, the Ca^2+ inflow through the channel is quantified with the aid of a Ca^2=-sensitive dyestuff (type Fluo-4, Molecular Probes Europe BV, Leiden, Holland) in a fluorescent imaging plate reader (FLIPR, Molecular Devices, Sunnyvale, USA).
(§3) Chinese hamster ovary cells (CHO K1 cells) transfected stably with the human B1R gene (hB1R cells) or the B1R gene of the rat (rB1R cells) are used. For functional studies, these cells are plated out on black 96-well plates with a clear base (BD Biosciences, Heidelberg, Germany or Greiner, Frickenhausen, Germany) in a density of 20,000-35,000 cells/well. The cells are left overnight at 37° C. and 5% CO2 in culture medium (hB1R cells: Nutrient Mixture Ham's F12, Gibco Invitrogen GmbH, Karlsruhe, Germany or DMEM, Sigma-Aldrich, Taufkirchen, Germany; rB1R cells: D-MEM/F12, Gibco Invitrogen GmbH, Karlsruhe, Germany) with 10 vol. % of FBS (foetal bovine serum, Gibco Invitrogen GmbH, Karlsruhe, Germany or PAN Biotech GmbH, Aidenbach, Germany).
(§4) On the following day, the cells are loaded for 60 min at 37° C. with 2.13 μM Fluo-4 (Molecular Probes Europe BV, Leiden, The Netherlands) in HBSS buffer (Hank's buffered saline solution, Gibco Invitrogen GmbH, Karlsruhe, Germany) with 2.5 mM probenecid (Sigma-Aldrich, Taufkirchen, Germany) and 10 mM HEPES (Sigma-Aldrich, Taufkirchen, Germany). The plates are then washed 2× with HBSS buffer, and HBSS buffer which additionally contains 0.1% of BSA (bovine serum albumin; Sigma-Aldrich, Taufkirchen, Germany), 5.6 mM glucose and 0.05% of gelatine (Merck KGaA, Darmstadt, Germany) is added. After a further incubation of 20 minutes at room temperature, the plates are inserted into the FLIPR for the Ca^2+ measurement.
(§5) Alternatively, the plates are washed with buffer A (15 mM HEPES, 80 mM NaCl, 5 mM KCl, 1.2 mM CaCl2, 0.7 mM MgSO4, 2 g/l glucose, 2.5 mM probenecid), buffer A is added and the plates are loaded with 2.5 μM Fluo-4 and 0.025% of Pluronic F127 (Sigma-Aldrich, Taufkirchen, Germany). Thereafter, the cells are washed 2× with buffer A and incubated for 30 minutes with buffer A, which additionally contains 0.05% of BSA and 0.05% of gelatine, at room temperature and thereafter inserted into the FLIPR for the Ca^2+ measurement.
(§6) The Ca^2+-dependent fluorescence is measured before and after addition of substances (λex=488 nm, λem=540 nm). Quantification is by measurement of the highest fluorescence intensity (FC, fluorescence counts) over time.
(§7) The FLIPR protocol consists of 2 additions of substance. Test substances (10 μM) are first pipetted on to the cells and the Ca^2+ inflow is compared with the control (hB1R: Lys-Des-Arg^9-bradykinin >=50 nM; rB1R: Des-Arg^9-bradykinin 10 μM). This gives the information in % activation based on the Ca^2+ signal after addition of Lys-Des-Arg^9-bradykinin (>=50 nM) or Des-Arg^9-bradykinin (10 μM).
(§8) After incubation for 10-20 minutes, Lys-Des-Arg^9-bradykinin (hB1R) or Des-Arg^9-bradykinin (rB1R) is applied in the concentration of the EC80 and the inflow of Ca^2+ is likewise determined.
(§9) Antagonists lead to a suppression of the Ca^2+ inflow. % inhibition compared with the maximum achievable inhibition is calculated.
(§10) To determine the IC50 value, the substances are added in various concentrations. Duplicate or triplicate determinations (n=2 or n=3) are carried out, and these are repeated in at least one further independent experiment (N>=2).
(§11) Preferably, the compounds have a B1R antagonistic action on the human receptor and/or on the rat receptor. The following data are given by way of example in the following table: (In this, “B1R Ant. h” represents “B1R antagonism human” and “B1R Ant. r” represents “B1R antagonism rat”)

Test [2] concerns the target T2, bradykinin 1 receptor (B1R) of the rat (Rattus norvegicus, UniProt P97583).
T2 construct: expressed in transfected cells; host or cells: CHO K1 cells
T2 sequence (P97583 1-337): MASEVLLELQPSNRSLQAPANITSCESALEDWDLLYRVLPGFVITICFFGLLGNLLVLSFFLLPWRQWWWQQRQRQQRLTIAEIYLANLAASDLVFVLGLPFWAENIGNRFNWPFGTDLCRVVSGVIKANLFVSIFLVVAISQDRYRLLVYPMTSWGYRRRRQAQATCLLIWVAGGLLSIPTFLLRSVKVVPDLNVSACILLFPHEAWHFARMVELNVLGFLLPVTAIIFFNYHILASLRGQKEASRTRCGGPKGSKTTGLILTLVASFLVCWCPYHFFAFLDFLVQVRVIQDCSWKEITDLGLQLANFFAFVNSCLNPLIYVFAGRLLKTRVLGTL
Briefly: Functional investigation on the rat bradykinin 1 receptor (B1R), Ca2+ FLIPR assay in CHO K1 rB1R cells. The format is cell-based.
Description: as §1, §2, §3, §4, §5, §6, §7, §8, §9, §10, §11

Setting [3] is: CHO-K1, B1R antagonism human, test substance 10 μM, Ca2+ FLIPR, CHO K1 hB1R cells, read-out: B1R Ant. h [10 μM] % Inhibition.
Where [4] appears, read: CHO-K1, B1R antagonism rat, test substance 10 μM, Ca2+ FLIPR, CHO K1 rB1R cells, read-out: B1R Ant. r [10 μM] % Inhibition.

Where two headings read alike, the source gives them in different places.

In general, inhibition refers to the change of the read-out against control, counted positive when it falls. Consider `CN(Cc1ccccc1)C(c1ccccc1)C1CCC(NC(=O)COCCN(C2CC2)S(=O)(=O)c2c(Cl)cc(Cl)cc2Cl)CC1` (stereo not shown) [Example 604, N-{4-[(benzylmethylamino)-phenylmethyl]-cyclohexyl}-2-{2-[cyclopropyl-(2,4,6-trichlorobenzenesulfonyl)-amino]-ethoxy}-acetamide], for which the inhibition at 10 µM in test [1] (setting [3]) is -18%; in test [2] (setting [4]) it was 33%.
As to `O=C(COCCN(C1CC1)S(=O)(=O)c1c(Cl)cc(Cl)cc1Cl)NC1CCC(C(c2ccccc2)N2CCOCC2)CC1` (stereo not shown) [Example 605, 2-{2-[cyclopropyl-(2,4,6-trichlorobenzenesulfonyl)-amino]-ethoxy}-N-[4-(morpholin-4-yl-phenylmethyl)-cyclohexyl]-acetamide], the inhibition at 10 µM stood at 40% in test [1] (setting [3]) and 38% in test [2] (setting [4]).
For `CN(CCOCC(=O)NC1CCC(C(c2ccccc2)N2CCOCC2)CC1)S(=O)(=O)c1c(Cl)cc(Cl)cc1Cl` (stereo not shown) [Example 607, 2-{2-[methyl-(2,4,6-trichlorobenzenesulfonyl)-amino]-ethoxy}-N-[4-(morpholin-4-ylphenylmethyl)-cyclohexyl]-acetamide], the “B1R Ant. h [10 μM] % Inhibition” value in test [1] (B1R antagonism human, test substance 10 μM, Ca2+ FLIPR, CHO K1 hB1R cells) stood at 12%. In test [2] (B1R antagonism rat, test substance 10 μM, Ca2+ FLIPR, CHO K1 rB1R cells), the “B1R Ant. r [10 μM] % Inhibition” value turned out to be 3%.
With `O=C(COC1CCN(S(=O)(=O)c2c(Cl)cc(Cl)cc2Cl)C1)NC1CCC(C(c2ccccc2)N2CCOCC2)CC1` (stereo not shown) [Example 610, N-[4-(morpholin-4-ylphenylmethyl)-cyclohexyl]-2-[1-(2,4,6-trichlorobenzenesulfonyl)-pyrrolidin-3-yloxy]-acetamide], the inhibition at 10 µM amounted to 12% in test [1] (setting [3]) and 5% in test [2] (setting [4]).
As for `CN(C)C(c1ccccc1)C1CCC(NC(=O)CNC(=O)c2nc(-c3cc(Cl)cc(Cl)c3)no2)CC1` (stereo not shown) [Example 760, 3-(3,5-dichloro-phenyl)-[1,2,4]oxadiazole-5-carboxylic acid {[4-(dimethylamino-phenyl-methyl)-cyclohexylcarbamoyl]-methyl}-amide], the values for the inhibition at 10 µM in test [1] (setting [3]) and in test [2] (setting [4]) were 66% and -4%, respectively.
`CN(C)C(c1ccccc1)C1CCC(NC(=O)CCNC(=O)c2nc(-c3cc(Cl)cc(Cl)c3)no2)CC1` (stereo not shown) [Example 761, 3-(3,5-dichloro-phenyl)-[1,2,4]oxadiazole-5-carboxylic acid {2-[4-(dimethylamino-phenyl-methyl)-cyclohexylcarbamoyl]-ethyl}-amide]: the inhibition at 10 µM was 34% in test [1] (CHO-K1, read-out: B1R Ant. h [10 μM] % Inhibition) and 15% in test [2] (CHO-K1, read-out: B1R Ant. r [10 μM] % Inhibition).
With `Cc1cc(Cl)cc(Cl)c1-c1noc(C(=O)NCC(=O)NC2CCC(C(c3ccccc3)N(C)C)CC2)n1` (stereo not shown) [Example 762, 3-(2,4-dichloro-6-methyl-phenyl)-[1,2,4]oxadiazole-5-carboxylic acid {[4-(dimethylamino-phenyl-methyl)-cyclohexylcarbamoyl]-methyl}-amide], the inhibition at 10 µM is 73% in test [1] (setting [3]) and 25% in test [2] (setting [4]).
Take `COc1ccccc1-c1noc(C(=O)NCC(=O)NC2CCC(C(c3ccccc3)N(C)C)CC2)n1` (stereo not shown) [Example 763, 3-(2-methoxy-phenyl)-[1,2,4]oxadiazole-5-carboxylic acid {[4-(dimethylamino-phenyl-methyl)-cyclohexylcarbamoyl]-methyl}-amide]: the inhibition at 10 µM in test [1] (setting [3]) is -10%; in test [2] (setting [4]), 22%.
The like results for `CN(C)C(c1ccccc1)C1CCC(NC(=O)CNC(=O)c2nc(-c3cccs3)no2)CC1` (stereo not shown) [Example 764, 3-thiophen-2-yl-[1,2,4]oxadiazole-5-carboxylic acid {[4-(dimethylamino-phenyl-methyl)-cyclohexylcarbamoyl]-methyl}-amide] were, in that order, 17% and -31%.
In the same order, the values of `CN(C)C(c1ccccc1)C1CCC(NC(=O)CNC(=O)c2nc(-c3ccc(C(F)(F)F)cc3)no2)CC1` (stereo not shown) [Example 765, 3-(4-trifluoromethyl-phenyl)-[1,2,4]oxadiazole-5-carboxylic acid {[4-(dimethylamino-phenyl-methyl)-cyclohexylcarbamoyl]-methyl}-amide] are 15% and 29%.
In the same order, the values of `CN(C)C(c1ccccc1)C1CCC(NC(=O)CNC(=O)c2nc(-c3ccc(C(C)(C)C)cc3)no2)CC1` (stereo not shown) [Example 766, 3-(4-tert-butyl-phenyl)-[1,2,4]oxadiazole-5-carboxylic acid {[4-(dimethylamino-phenyl-methyl)-cyclohexylcarbamoyl]-methyl}-amide] are 6% and -9%.
`Cc1ccc(F)cc1-c1noc(C(=O)NCC(=O)NC2CCC(C(c3ccccc3)N(C)C)CC2)n1` (stereo not shown) [Example 767, 3-(5-fluoro-2-methyl-phenyl)-[1,2,4]oxadiazole-5-carboxylic acid {[4-(dimethylamino-phenyl-methyl)-cyclohexylcarbamoyl]-methyl}-amide]: the inhibition at 10 µM in test [1] (setting [3]) was found to be 43%; in test [2] (setting [4]) it was 17%.
In the same order, the values of `CN(C)C(c1ccccc1)C1CCC(NC(=O)CCNC(=O)c2nc(-c3ccc4c(c3)OCO4)no2)CC1` (stereo not shown) [Example 768, 3-benzo[1,3]dioxol-5-yl-[1,2,4]oxadiazole-5-carboxylic acid {2-[4-(dimethylamino-phenyl-methyl)-cyclohexylcarbamoyl]-ethyl}-amide] are -3% and -2%.
The like results for `CN(C)C(c1ccccc1)C1CCC(NC(=O)CNC(=O)c2nc(CS(=O)(=O)c3ccccc3)no2)CC1` (stereo not shown) [Example 769, 3-benzenesulfonylmethyl-[1,2,4]oxadiazole-5-carboxylic acid {[4-(dimethylamino-phenyl-methyl)-cyclohexylcarbamoyl]-methyl}-amide] were, in that order, 15% and 39%.
